Results as given in ChEMBL document CHEMBL4325863, “Investigating alkyl nitrates as nitric oxide releasing precursors of multitarget acetylcholinesterase-monoamine oxidase B inhibitors” (Eur J Med Chem, 2019).

Legend:
[1] = target: T1, Amine oxidase [flavin-containing] B (Homo sapiens, UniProt P27338); experiment: Inhibition of recombinant human MAO-B expressed in baculovirus infected insect cell microsomes using kynuramine as substrate measured after 30 mins by fluorescence based assay
T1 sequence (P27338 whole entry): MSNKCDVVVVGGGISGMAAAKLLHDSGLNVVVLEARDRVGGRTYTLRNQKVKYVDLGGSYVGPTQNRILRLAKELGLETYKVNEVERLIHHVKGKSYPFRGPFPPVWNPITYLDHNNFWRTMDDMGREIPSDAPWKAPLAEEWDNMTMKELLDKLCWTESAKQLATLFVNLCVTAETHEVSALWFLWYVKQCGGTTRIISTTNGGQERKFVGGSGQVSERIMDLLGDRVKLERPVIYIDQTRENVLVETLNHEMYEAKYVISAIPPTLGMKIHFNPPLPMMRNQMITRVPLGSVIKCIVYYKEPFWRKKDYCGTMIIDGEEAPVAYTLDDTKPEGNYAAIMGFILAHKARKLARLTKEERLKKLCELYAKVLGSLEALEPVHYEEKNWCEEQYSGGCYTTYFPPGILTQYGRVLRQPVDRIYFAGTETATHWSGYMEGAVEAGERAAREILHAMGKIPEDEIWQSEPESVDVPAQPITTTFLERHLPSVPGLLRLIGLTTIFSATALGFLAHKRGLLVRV

[2] = target: T2, Amine oxidase [flavin-containing] A (Homo sapiens, UniProt P21397); experiment: Inhibition of recombinant human MAO-A expressed in baculovirus infected insect cell microsomes using kynuramine as substrate measured after 30 mins by fluorescence based assay
T2 sequence (P21397 whole entry): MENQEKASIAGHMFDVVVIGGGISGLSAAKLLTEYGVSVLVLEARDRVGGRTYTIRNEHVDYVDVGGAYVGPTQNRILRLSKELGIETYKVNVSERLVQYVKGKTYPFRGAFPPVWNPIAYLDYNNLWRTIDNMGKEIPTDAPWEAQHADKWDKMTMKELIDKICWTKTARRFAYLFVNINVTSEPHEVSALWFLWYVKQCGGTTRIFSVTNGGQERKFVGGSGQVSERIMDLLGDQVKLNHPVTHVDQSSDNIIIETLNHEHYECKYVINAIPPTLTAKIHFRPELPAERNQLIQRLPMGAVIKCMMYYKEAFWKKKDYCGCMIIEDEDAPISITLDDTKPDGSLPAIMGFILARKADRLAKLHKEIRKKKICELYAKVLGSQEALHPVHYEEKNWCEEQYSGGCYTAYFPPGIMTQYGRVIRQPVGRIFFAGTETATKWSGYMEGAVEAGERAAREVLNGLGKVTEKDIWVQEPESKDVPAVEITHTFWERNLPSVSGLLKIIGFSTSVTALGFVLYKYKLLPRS

Acetylcholinesterase [3] = target: Acetylcholinesterase (Electrophorus electricus, UniProt O42275); experiment: Inhibition of electric eel AChE using acetylthiocholine iodide as substrate by Ellman's method
[4] = target: Cholinesterase (Equus caballus) (UniProt P81908); experiment: Inhibition of equine serum BuChE at 10 uM using butyrylthiocholine iodide as substrate by Ellman's method relative to control
[5] = target: T2, Amine oxidase [flavin-containing] A; experiment: Inhibition of recombinant human MAO-A expressed in baculovirus infected insect cell microsomes at 10 uM using kynuramine as substrate measured after 30 mins by fluorescence based assay relative to control; details: 0.5 h
[6] = target: T1, Amine oxidase [flavin-containing] B; experiment: Inhibition of recombinant human MAO-B expressed in baculovirus infected insect cell microsomes using kynuramine as substrate measured after 30 mins by spectrophotometric assay
[7] = Half life in human serum at 100 uM by RP-HPLC method; format: ADME, cell-free
[8] = Drug metabolism in pH 7.4 PBS buffer assessed as 7-({1-[3-(Hydroxymethyl)benzyl]piperidin-4-yl}methoxy)-3,4-dimethyl-2H-chromen-2-one formation at 100 uM up to 30 hrs in presence of glutathione by RP-HPLC method
SH-SY5Y [9] = experiment: Cytotoxicity against human SH-SY5Y cells assessed as reduction in cell viability after 24 hrs by MTT assay; format: cell-based
[10] = Apparent permeability from apical to basolateral side in MDCK2-MDR1 cells by UV-Visible spectrophotometric method; format: ADME, cell-based, Canis lupus familiaris; details: dog, MDCK-MDR1
Acetylcholinesterase [11] = target: Acetylcholinesterase (Homo sapiens, UniProt P22303); experiment: Inhibition of human recombinant AChE using acetylthiocholine iodide as substrate by Ellman's method
SH-SY5Y [12] = experiment: Neuroprotection against rotenone/H2O2-induced cell death in human SH-SY5Y cells assessed as increase in cell viability preincubated for 24 hrs followed by rotenone/H2O2 addition measured after 24 hrs by MTT assay; format: functional, cell-based
[13] = Efflux ratio of apparent permeability in MDCK2-MDR1 cells by UV-Visible spectrophotometric method; format: ADME, cell-based, Canis lupus familiaris; details: dog, MDCK-MDR1
[14] = Apparent permeability from basolateral to apical side in MDCK2-MDR1 cells by UV-Visible spectrophotometric method; format: ADME, cell-based, Canis lupus familiaris; details: dog, MDCK-MDR1
[15] = Drug metabolism in PBS buffer assessed as nitric oxide release at 150 uM in presence of cysteine by Griess reagent based UV-Visible spectrophotometric method; details: TDE = time-dependent effect
[16] = Drug metabolism in pH 7.4 PBS buffer assessed as 7-({1-[3-(Hydroxymethyl)benzyl]piperidin-4-yl}methoxy)-3,4-dimethyl-2H-chromen-2-one formation at 100 uM up to 30 hrs in presence of cysteine by RP-HPLC method
[17] = Drug metabolism in pH 7.4 PBS buffer assessed as 7-({1-[3-(Hydroxymethyl)benzyl]piperidin-4-yl}methoxy)-3,4-dimethyl-2H-chromen-2-one formation at 100 uM after 24 hrs by RP-HPLC method
Cholinesterase [18] = target: Cholinesterase (Equus caballus, UniProt P81908); experiment: Inhibition of equine serum BuChE using butyrylthiocholine iodide as substrate by Ellman's method
Homo sapiens = species: Homo sapiens; experiment: Selectivity index, ratio of IC50 for recombinant human MAO-A to IC50 for recombinant human MAO-B
[19] = target: T1, Amine oxidase [flavin-containing] B; experiment: Inhibition of recombinant human MAO-B expressed in baculovirus infected insect cell microsomes at 10 uM using kynuramine as substrate measured after 30 mins by fluorescence based assay relative to control; details: 0.5 h
Cholinesterase [20] = target: T3, Cholinesterase (Homo sapiens, UniProt P06276); experiment: Inhibition of human serum BuChE at 10 uM using butyrylthiocholine iodide as substrate by Ellman's method relative to control
[21] = Selectivity index, ratio of IC50 for equine serum BuChE to IC50 for electric eel AChE
Cholinesterase [22] = target: T3, Cholinesterase; experiment: Inhibition of human serum BuChE using butyrylthiocholine iodide as substrate by Ellman's method

Sequence of Cholinesterase (Equus caballus) (P81908 whole entry): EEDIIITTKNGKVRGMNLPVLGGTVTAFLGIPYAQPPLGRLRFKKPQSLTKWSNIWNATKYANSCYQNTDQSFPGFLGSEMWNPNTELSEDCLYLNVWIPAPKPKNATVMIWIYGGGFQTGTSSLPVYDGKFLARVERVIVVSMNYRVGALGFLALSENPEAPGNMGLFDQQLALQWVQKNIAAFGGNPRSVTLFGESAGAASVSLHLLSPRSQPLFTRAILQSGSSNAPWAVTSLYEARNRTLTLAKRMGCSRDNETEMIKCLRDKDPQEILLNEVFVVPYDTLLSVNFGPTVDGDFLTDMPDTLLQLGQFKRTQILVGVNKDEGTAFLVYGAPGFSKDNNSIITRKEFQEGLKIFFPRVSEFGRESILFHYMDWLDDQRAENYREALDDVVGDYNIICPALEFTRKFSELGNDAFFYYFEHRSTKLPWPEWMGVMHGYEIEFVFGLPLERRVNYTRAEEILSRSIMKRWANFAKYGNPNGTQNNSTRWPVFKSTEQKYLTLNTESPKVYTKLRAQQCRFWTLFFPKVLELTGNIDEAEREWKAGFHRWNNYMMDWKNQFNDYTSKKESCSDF
Sequence of Cholinesterase (Equus caballus, UniProt P81908) (P81908 whole entry): as above
Sequence of Acetylcholinesterase (Electrophorus electricus, UniProt O42275) (O42275 whole entry): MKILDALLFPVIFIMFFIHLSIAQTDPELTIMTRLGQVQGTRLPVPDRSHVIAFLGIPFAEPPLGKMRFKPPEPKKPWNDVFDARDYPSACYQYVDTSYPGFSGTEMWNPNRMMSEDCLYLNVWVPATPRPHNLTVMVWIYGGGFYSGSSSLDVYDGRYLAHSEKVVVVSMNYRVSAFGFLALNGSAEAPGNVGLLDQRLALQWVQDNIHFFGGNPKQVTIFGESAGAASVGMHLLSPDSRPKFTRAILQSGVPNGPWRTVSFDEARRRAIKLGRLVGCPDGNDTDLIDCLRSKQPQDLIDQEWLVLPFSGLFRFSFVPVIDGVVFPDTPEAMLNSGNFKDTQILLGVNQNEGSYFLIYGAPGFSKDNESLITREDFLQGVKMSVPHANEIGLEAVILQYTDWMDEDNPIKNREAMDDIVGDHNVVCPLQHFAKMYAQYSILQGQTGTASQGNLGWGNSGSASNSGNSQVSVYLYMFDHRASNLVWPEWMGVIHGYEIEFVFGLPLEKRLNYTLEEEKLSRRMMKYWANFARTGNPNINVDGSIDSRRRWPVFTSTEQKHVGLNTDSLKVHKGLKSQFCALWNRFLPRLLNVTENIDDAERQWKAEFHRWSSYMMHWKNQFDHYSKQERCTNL
Sequence of Acetylcholinesterase (Homo sapiens, UniProt P22303) (P22303 whole entry): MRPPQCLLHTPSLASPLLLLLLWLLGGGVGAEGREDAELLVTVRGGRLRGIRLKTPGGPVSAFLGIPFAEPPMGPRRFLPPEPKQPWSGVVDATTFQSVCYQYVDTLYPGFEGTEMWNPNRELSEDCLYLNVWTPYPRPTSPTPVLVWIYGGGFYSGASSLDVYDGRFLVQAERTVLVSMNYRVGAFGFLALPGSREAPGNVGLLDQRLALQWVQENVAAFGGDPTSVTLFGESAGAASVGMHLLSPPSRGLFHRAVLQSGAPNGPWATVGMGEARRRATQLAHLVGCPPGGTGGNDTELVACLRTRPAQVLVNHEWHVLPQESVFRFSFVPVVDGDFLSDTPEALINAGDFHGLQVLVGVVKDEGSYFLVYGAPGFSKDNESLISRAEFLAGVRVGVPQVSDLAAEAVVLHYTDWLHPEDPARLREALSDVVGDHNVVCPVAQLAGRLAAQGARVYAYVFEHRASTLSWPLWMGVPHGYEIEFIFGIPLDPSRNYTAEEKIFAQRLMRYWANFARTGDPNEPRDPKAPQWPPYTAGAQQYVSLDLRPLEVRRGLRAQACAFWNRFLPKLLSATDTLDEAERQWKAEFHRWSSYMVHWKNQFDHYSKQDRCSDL
T3 sequence (P06276 whole entry): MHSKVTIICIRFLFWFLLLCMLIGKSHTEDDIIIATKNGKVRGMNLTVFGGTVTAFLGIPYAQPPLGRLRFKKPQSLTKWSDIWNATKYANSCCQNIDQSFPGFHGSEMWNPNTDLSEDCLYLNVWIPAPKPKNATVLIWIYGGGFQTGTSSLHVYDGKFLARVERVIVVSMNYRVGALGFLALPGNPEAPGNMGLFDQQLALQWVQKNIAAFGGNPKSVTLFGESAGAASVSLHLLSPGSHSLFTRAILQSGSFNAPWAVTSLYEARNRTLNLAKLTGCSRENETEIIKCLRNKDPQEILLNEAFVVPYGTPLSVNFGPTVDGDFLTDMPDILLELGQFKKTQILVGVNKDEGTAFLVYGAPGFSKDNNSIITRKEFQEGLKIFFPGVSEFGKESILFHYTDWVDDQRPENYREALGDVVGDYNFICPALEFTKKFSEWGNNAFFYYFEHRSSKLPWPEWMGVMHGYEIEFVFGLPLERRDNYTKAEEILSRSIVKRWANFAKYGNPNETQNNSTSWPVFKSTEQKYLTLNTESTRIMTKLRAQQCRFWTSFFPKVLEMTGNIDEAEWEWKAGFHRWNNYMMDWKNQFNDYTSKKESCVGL

Row | SMILES | IC50 [1] [nM] | IC50 [2] [nM] | IC50 (Acetylcholinesterase [3]) [nM] | inhibition [4] [%] | inhibition at 10 µM [5] [%] | IC50 (Cholinesterase [18]) [nM] | further results
1 | Cc1cc(=O)oc2cc(OCC3CCN(Cc4ccc(CO)cc4)CC3)ccc12 | 600 | 11000 | 1600 | 45 |  |  | 
2 | Cc1c(C)c2ccc(OCC3CCCN(CCCO)C3)cc2oc1=O (centres undefined) | 1500 |  | 1800 | 26 | 41 |  | 
3 | CN(C)Cc1ccc(COc2ccc3c(CO)cc(=O)oc3c2)cc1 | 78 |  | 4500 | 43 | 20 |  | IC50 [6]: 74 nM
4 | Cc1c(C)c2ccc(OCC3CCN(Cc4cccc(CO[N+](=O)[O-])c4)CC3)cc2oc1=O | 51 | 230 |  |  |  |  | half-life at 100 µM [7]: 36.8 h; Drug metabolism [8]: Metabolite detected; Activity (SH-SY5Y [9]): 36 µM; Papp A→B [10]: 12.4 ×10⁻⁶ cm/s; IC50 (Acetylcholinesterase [11]): 1300 nM; Activity (SH-SY5Y [12]): Dose-dependent effect; efflux ratio [13]: 1.33; Papp B→A [14]: 16.5 ×10⁻⁶ cm/s; Drug metabolism [15]: Tde; Drug metabolism [16]: Metabolite detected; Drug metabolism [17]: 7%
5 | Cc1c(C)c2ccc(OCC3CCN(Cc4ccc(CO)cc4)CC3)cc2oc1=O | 29 | 1400 | 1000 |  |  | 8800 | IC50 [6]: 39 nM; Ratio IC50 (Homo sapiens): 48
6 | Cc1c(C)c2ccc(OCc3cccc(CN4CCC(CO)CC4)c3)cc2oc1=O | 320 |  | 2900 |  | 23 | 1000 | 
7 | Cc1c(C)c2ccc(OCC3CCCN(Cc4cccc(CO)c4)C3)cc2oc1=O (centres undefined) | 110 | 2200 | 900 |  |  | 2700 | 
8 | Cc1c(C)c2ccc(OCC3CCN(CCCCO)CC3)cc2oc1=O | 3600 |  | 500 |  | 30 | 8300 | 
9 | Cc1cc2ccc(OCC3CCN(Cc4ccc(CO)cc4)CC3)cc2oc1=O | 3100 |  | 3000 |  | 43 | 8100 | 
10 | Cc1cc(=O)oc2cc(OCC3CCN(Cc4cccc(CO)c4)CC3)ccc12 | 480 | 3500 | 1600 |  |  | 1900 | 
11 | Cc1c(C)c2ccc(OCCC3CCN(CCCO)CC3)cc2oc1=O |  |  | 720 | 39 | 35 |  | inhibition at 10 µM [19]: 31%
12 | O=c1ccc2ccc(OCC3CCCN(CCCO)C3)cc2o1 (centres undefined) |  |  | 3500 |  | 14 | 1700 | inhibition at 10 µM [19]: 42%
13 | Cc1c(C)c2ccc(OCC3CCN(Cc4cccc(CO)c4)CC3)cc2oc1=O | 76 | 1900 | 1000 |  |  | 1300 | Activity (SH-SY5Y [9]): 43 µM; Papp A→B [10]: 19.8 ×10⁻⁶ cm/s; IC50 (Acetylcholinesterase [11]): 1400 nM; Activity (SH-SY5Y [12]): Dose-dependent effect; efflux ratio [13]: 1.09; Papp B→A [14]: 21.5 ×10⁻⁶ cm/s
14 | Cc1c(C)c2ccc(OCC3CCN(CCCO)CC3)cc2oc1=O | 480 |  | 1300 | 30 | 44 |  | Activity (SH-SY5Y [9]): > 100 µM; Papp A→B [10]: 9.92 ×10⁻⁶ cm/s; inhibition (Cholinesterase [20]): < 5%; IC50 (Acetylcholinesterase [11]): 890 nM; Activity (SH-SY5Y [12]): Dose-dependent effect; efflux ratio [13]: 1.5; Papp B→A [14]: 14.9 ×10⁻⁶ cm/s
15 | Cc1cc2ccc(OCC3CCN(Cc4cccc(CO)c4)CC3)cc2oc1=O | 1100 | 3900 | 3200 |  |  | 910 | 
16 | Cc1c(C)c2ccc(OCC3CCN(Cc4cccc(OCCCO)c4)CC3)cc2oc1=O | 780 | 550 | 1800 |  |  | 180 | Ratio IC50 [21]: 0.1; IC50 (Acetylcholinesterase [11]): 840 nM; IC50 (Cholinesterase [22]): 740 nM; Ratio IC50 (Homo sapiens): 0.7
17 | CN(C)Cc1cccc(COc2ccc3c(CO)cc(=O)oc3c2)c1 | 54 |  | 5900 | 36 | 42 |  | 
18 | CN(C)Cc1cc(=O)oc2cc(OCc3ccc(CO)cc3)ccc12 | 630 |  | 1300 |  | 23 | 11000 | IC50 [6]: 770 nM
19 | Cc1c(C)c2ccc(OCC3CCN(Cc4ccc(CCO)cc4)CC3)cc2oc1=O | 120 | 1700 | 1200 | 41 |  |  | 
20 | CN(C)Cc1cc(=O)oc2cc(OCc3cccc(CO)c3)ccc12 | 1100 |  | 4400 | 35 | 21 |  | 
21 | Cc1c(C)c2ccc(OCC3CCCN(Cc4ccc(CO)cc4)C3)cc2oc1=O (centres undefined) | 76 | 1100 | 1200 |  |  | 8600 | 
